The experiment concerns the target T1, FVIIa (Homo sapiens, UniProt P08709).
T1 construct: FVIIa (ADI#407, final 10 nM); purchased ADI #407 (FVIIa); #4500 (tissue factor)
Put plainly: FVIIa inhibitory activity (chromogenic substrate S-2288, FVIIa/tissue factor). It is filed as biochemical. The note with it: FVIIa 10 nM, tissue factor 10 nM, 2 mM CaCl2, 0.5 mM S-2288, 37° C., pH 7.5. As to the method:
10 μl of the compound of the present invention in 10% DMSO were added to 65 μl of the buffer solution including FVIIa (ADI#407, final 10 nM), tissue factor (ADI#4500, final 10 nM) and calcium chloride. The mixture was incubated for 10 minutes at 37° C., then 25 μl of 2 mM H-D-Ile-Pro-Arg-pNA (Chromogenix S-2288) was added (total volume 100 μl). The absorbance was measured at 405 nm at regular time intervals, and an initial velocity was calculated. The control value was measured with 10% of DMSO. Inhibitory activity was expressed as a 50% inhibition of control (IC50).
The final concentration of calcium chloride and S-2288 were 2 mM and 0.5 mM respectively. The buffer solution consisted of 50 mM tris-hydrochloric acid buffer (pH 7.5) containing 0.2% PEG6000 and 150 mM sodium chloride.

Molecules are shown by their SMILES. pIC50: −log10 of the molar value.

T1 sequence (P08709 213-466 limits assumed): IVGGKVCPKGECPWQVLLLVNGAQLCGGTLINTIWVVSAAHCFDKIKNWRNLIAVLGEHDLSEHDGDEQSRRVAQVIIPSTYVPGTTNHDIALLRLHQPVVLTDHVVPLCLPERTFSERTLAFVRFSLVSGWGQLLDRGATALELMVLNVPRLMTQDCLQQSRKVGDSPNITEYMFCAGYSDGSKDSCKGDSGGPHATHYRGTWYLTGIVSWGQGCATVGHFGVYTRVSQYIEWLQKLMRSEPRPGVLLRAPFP
T1 sequence (P08709 61-212 limits assumed): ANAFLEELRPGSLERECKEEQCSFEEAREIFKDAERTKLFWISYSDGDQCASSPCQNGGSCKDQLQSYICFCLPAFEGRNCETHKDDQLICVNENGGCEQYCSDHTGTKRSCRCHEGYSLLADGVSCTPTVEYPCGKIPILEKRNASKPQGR
T1 sequence (P13726 33-295 partner): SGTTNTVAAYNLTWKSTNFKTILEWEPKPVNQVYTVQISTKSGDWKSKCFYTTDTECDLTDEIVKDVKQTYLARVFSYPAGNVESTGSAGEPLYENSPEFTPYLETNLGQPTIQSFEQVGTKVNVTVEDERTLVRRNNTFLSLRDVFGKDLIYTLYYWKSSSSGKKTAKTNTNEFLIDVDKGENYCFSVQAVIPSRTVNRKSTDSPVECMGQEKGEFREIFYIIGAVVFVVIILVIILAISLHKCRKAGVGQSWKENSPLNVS

As usually defined, the pIC50 is −log10 of the IC50, conventionally taken in molar units. Lower therefore signals a large IC50. The molecule `CC(C)CNC(=O)c1ccc(-c2cc3ccccc3cc2C(=O)Nc2ccc(C(=N)N)cc2)c(C(=O)O)c1` [Example 19(47), 2-(3-(4-amidinophenylcarbamoyl)naphthalen-2-yl)-5-((2-methylpropyl)carbamoyl)benzoic acid methanesulfonate] showed a negative logarithm of the IC50 (pIC50) of 7.92.
Regarding `COc1ccc(-c2ccc(C(=O)N[C@H](CO)C(C)(C)C)cc2C(=O)O)c(C(=O)Nc2ccc(C(=N)N)cc2)n1` [Example 46, 2-[2-(4-amidinophenylcarbamoyl)-6-methoxy-3-pyridyl]-5-[(1(S)-hydroxymethyl-2,2-dimethylpropyl)carbamoyl]benzoic acid methanesulfonate], the negative logarithm of the IC50 (pIC50) was 7.89.

The values above are taken from patent publication US6358960B1, “Amidino derivatives and drugs containing the same as the active ingredient” (Ono Pharmaceutical Co., Ltd., priority 1998, dated 2002).
